Assay results taken from article PMC7559897, “Designed Antimicrobial Peptides Against Trauma-Related Cutaneous Invasive Fungal Wound Infections” (Journal of Fungi, 2020).
≈ marks a conversion by molar mass, not a printed value. Bridge positions count the residues as written; N and C are the ends. Square brackets hold non-standard residues; d marks the D form. Ends that are not written are not given here. Peptide text beside a SMILES is read from it. Orn = NCCC[C@H](N)C(=O)O

Key:
E. cloacae 6053 = assay type: cell-based; conditions: 6053, 24 h
Protocol: (§1) Assays were performed by Trideum Biosciences (Frederick, MD, USA). Isolates were thawed from −80 °C storage and sub-cultured on trypticase soy agar plates at 37 °C prior to experimentation. A single colony was aseptically picked from the agar plate and released in 30 mL trypticase soy broth and incubated overnight at 37 °C incubator. Following which the bacterial culture was diluted to approximately 10^6 colony forming units (CFU)/mL using 2X cation adjusted Mueller–Hinton broth and added to the dAMP solutions (0, 2, 4, 8, 16, 32, 64, and 128 μg/mL) which had been formulated in water at 256 μg/mL and then serially diluted in media on 96-well pates. For fungal evaluation, potato dextrose broth and potato dextrose agar plates were used. The treated cultures were then incubated for 24 h at 37 °C and pathogen growth was measured by absorbance at 600 nm. Four replicas were included for each dAMP concentration. Each MIC was assigned to the lowest test agent concentration resulting in at least three out of four wells showing no growth based on an optical density (OD) reading of <0.1.

S. epidermis ATCC 51625 = assay type: cell-based; conditions: ATCC 51625, 24 h
Protocol: as §1

[1] = tested on: Fusarium solani NRRL 28548; assay type: cell-based; conditions: NRRL 28548, 24 h
Protocol: as §1

Candida albicans Y-326 = assay type: cell-based; conditions: Y-326, 24 h
Protocol: as §1

[2] = tested on: Aspergillus flavus MYA-1004; assay type: cell-based; conditions: 24 h
Protocol: as §1

[3] = tested on: Aspergillus fumigatus 9648; assay type: cell-based; conditions: 9648, 24 h
Protocol: as §1

[4] = tested on: Candida parapsilosis Y-1763; assay type: cell-based; conditions: Y-1763, 24 h
Protocol: as §1

Candida krusei Y-27825 = assay type: cell-based; conditions: Y-27825, 24 h
Protocol: as §1

[5] = tested on: Mucor circinelloides NRRL 3631; assay type: cell-based; conditions: NRRL 3631, 24 h
Protocol: as §1

[6] = tested on: Aspergillus flavus MYA-3651; assay type: cell-based; conditions: 24 h
Protocol: as §1

[7] = tested on: Aspergillus fumigatus 9651; assay type: cell-based; conditions: 9651, 24 h
Protocol: as §1

Candida krusei Y-27803 = assay type: cell-based; conditions: Y-27803, 24 h
Protocol: as §1

[8] = tested on: Absidia corymbifera NRRL 6251; assay type: cell-based; conditions: NRRL 6251, 24 h
Protocol: as §1

E. cloacae 6054 = assay type: cell-based; conditions: 6054, 24 h
Protocol: as §1

Candida albicans Y-6359 = assay type: cell-based; conditions: Y-6359, 24 h
Protocol: as §1

[9] = tested on: Candida parapsilosis Y-1761; assay type: cell-based; conditions: Y-1761, 24 h
Protocol: as §1

P. aeruginosa ATCC 19660 = assay type: cell-based, Pseudomonas aeruginosa; conditions: ATCC 19660, 24 h
Protocol: as §1

P. aeruginosa ATCC 27853 = assay type: cell-based, Pseudomonas aeruginosa; conditions: ATCC 27853, 24 h
Protocol: as §1

P. aeruginosa 6186 = assay type: cell-based, Pseudomonas aeruginosa; conditions: 6186, 24 h
Protocol: as §1

A. baumannii 6043 = assay type: cell-based, Acinetobacter baumannii; conditions: 6043, 24 h
Protocol: as §1

A. baumannii ATCC 17978 = assay type: cell-based, Acinetobacter baumannii; conditions: ATCC 17978, 24 h
Protocol: as §1

A. baumannii 6838 = assay type: cell-based, Acinetobacter baumannii; conditions: 6838, 24 h
Protocol: as §1

MRSA ATCC 33592 = assay type: cell-based, Staphylococcus aureus; conditions: ATCC 33592, 24 h
Protocol: as §1

S. aureus B-767 = assay type: cell-based, Staphylococcus aureus; conditions: B-767, 24 h
Protocol: as §1

MRSA 6381 = assay type: cell-based, Staphylococcus aureus; conditions: 6381, 24 h
Protocol: as §1

S. aureus 6061 = assay type: cell-based, Staphylococcus aureus; conditions: 6061, 24 h
Protocol: as §1

MRSA 6313 = assay type: cell-based, Staphylococcus aureus; conditions: 6313, 24 h
Protocol: as §1

K. pneumonia 6069 = assay type: cell-based, Klebsiella pneumoniae; conditions: 24 h
Protocol: as §1

K. pneumonia ATCC 10031 = assay type: cell-based, Klebsiella pneumoniae; conditions: ATCC 10031, 24 h
Protocol: as §1

[10] = tested on: vulvovaginal candidiasis infection; conditions: rats with vulvovaginal candidiasis, oral; cited from earlier work
Text: The dAMPs RP504, RP554 and RP557 were thus tested for their ability to treat a rodent vulvovaginal candidiasis infection. […] A daily dose with a 2% concentration lowered the CFU/sample by more than 4 logs compared to the con ...

| Compound | MIC against E. cloacae 6053 (E. cloacae 6053) | MIC against S. epidermis ATCC 51625 (S. epidermis ATCC 51625) | MIC against Fusarium solani NRRL 28548 [1] | MIC against Candida albicans Y-326 (Candida albicans Y-326) | MIC against Aspergillus flavus MYA-1004 [2] | MIC against Aspergillus fumigatus 9648 [3] | MIC against Candida parapsilosis Y-1763 [4] | MIC against Candida krusei Y-27825 (Candida krusei Y-27825) | MIC against Mucor circinelloides NRRL 3631 [5] | MIC against Aspergillus flavus MYA-3651 [6] | MIC against Aspergillus fumigatus 9651 [7] | MIC against Candida krusei Y-27803 (Candida krusei Y-27803) | MIC against Absidia corymbifera NRRL 6251 [8] | MIC against E. cloacae 6054 (E. cloacae 6054) | MIC against Candida albicans Y-6359 (Candida albicans Y-6359) | MIC against Candida parapsilosis Y-1761 [9] | MIC against P. aeruginosa ATCC 19660 (P. aeruginosa ATCC 19660) | MIC against P. aeruginosa ATCC 27853 (P. aeruginosa ATCC 27853) | MIC against P. aeruginosa 6186 (P. aeruginosa 6186) | MIC against A. baumannii 6043 (A. baumannii 6043) | further results |
| --- | --- | --- | --- | --- | --- | --- | --- | --- | --- | --- | --- | --- | --- | --- | --- | --- | --- | --- | --- | --- | --- |
| CSCC[C@@H]1NC(=O)[C@H](C(C)C)NC(=O)[C@H](C(C)C)NC(=O)[C@H](CC(C)C)NC(=O)[C@H](Cc2c[nH]c3ccccc23)NC(=O)[C@H](C(C)C)NC(=O)[C@@H](NC(=O)[C@H](Cc2c[nH]c3ccccc23)NC(=O)[C@@H](N)CCCNC(=N)N)CSSC[C@@H](C(=O)N[C@@H](CCCCN)C(=O)N[C@@H](CCCCN)C(N)=O)NC1=O [RP513] (H-RWCVWLVVMCKK-NH2; disulfide 3-10) | >128 µg/mL | >128 µg/mL | 16 µg/mL (≈ 10.3 µM) | 64 µg/mL (≈ 41.3 µM) | >128 µg/mL | 128 µg/mL (≈ 82.7 µM) | >128 µg/mL | 64 µg/mL (≈ 41.3 µM) | 32 µg/mL (≈ 20.7 µM) | 128 µg/mL (≈ 82.7 µM) | >128 µg/mL | 64 µg/mL (≈ 41.3 µM) | 32 µg/mL (≈ 20.7 µM) | >128 µg/mL | 64 µg/mL (≈ 41.3 µM) | >128 µg/mL | >128 µg/mL | >128 µg/mL | >128 µg/mL | 64 µg/mL (≈ 41.3 µM) | MIC against A. baumannii ATCC 17978 (A. baumannii ATCC 17978): >128 µg/mL; MIC against A. baumannii 6838 (A. baumannii 6838): 128 µg/mL (≈ 82.7 µM); MIC against MRSA ATCC 33592 (MRSA ATCC 33592): >128 µg/mL; MIC against S. aureus B-767 (S. aureus B-767): >128 µg/mL; MIC against MRSA 6381 (MRSA 6381): >128 µg/mL; MIC against S. aureus 6061 (S. aureus 6061): >128 µg/mL; MIC against MRSA 6313 (MRSA 6313): >128 µg/mL; MIC against K. pneumonia 6069 (K. pneumonia 6069): 128 µg/mL (≈ 82.7 µM); MIC against K. pneumonia ATCC 10031 (K. pneumonia ATCC 10031): 128 µg/mL (≈ 82.7 µM) |
| CC[C@H](C)[C@H](NC(=O)[C@H](CCCN)NC(=O)[C@H](C)NC(=O)[C@H](CCCN)NC(=O)[C@H](CC(C)C)NC(=O)[C@H](CCCCN)NC(=O)[C@@H](NC(=O)[C@H](CCCCN)NC(=O)[C@@H](NC(=O)[C@H](CCCN)NC(=O)[C@H](C)NC(=O)[C@H](CCCN)NC(=O)[C@H](CC(C)C)NC(=O)[C@H](CCCN)NC(=O)[C@@H](N)Cc1ccccc1)[C@@H](C)CC)C(C)C)C(=O)N[C@@H](CCCN)C(=O)N[C@@H](CC(C)C)C(N)=O [RP555] (H-F[Orn]L[Orn]A[Orn]IKVKL[Orn]A[Orn]I[Orn]L-NH2) | 2 µg/mL (≈ 1.05 µM) | 2 µg/mL (≈ 1.05 µM) | 2 µg/mL (≈ 1.05 µM) | 32 µg/mL (≈ 16.7 µM) | >128 µg/mL | 64 µg/mL (≈ 33.5 µM) | 16 µg/mL (≈ 8.37 µM) | 32 µg/mL (≈ 16.7 µM) | 64 µg/mL (≈ 33.5 µM) | 128 µg/mL (≈ 66.9 µM) | 64 µg/mL (≈ 33.5 µM) | 32 µg/mL (≈ 16.7 µM) | 4 µg/mL (≈ 2.09 µM) | 4 µg/mL (≈ 2.09 µM) | 32 µg/mL (≈ 16.7 µM) | 32 µg/mL (≈ 16.7 µM) | 8 µg/mL (≈ 4.18 µM) | 4 µg/mL (≈ 2.09 µM) | 4 µg/mL (≈ 2.09 µM) | 16 µg/mL (≈ 8.37 µM) | MIC against A. baumannii ATCC 17978 (A. baumannii ATCC 17978): 4 µg/mL (≈ 2.09 µM); MIC against A. baumannii 6838 (A. baumannii 6838): 4 µg/mL (≈ 2.09 µM); MIC against MRSA ATCC 33592 (MRSA ATCC 33592): 8 µg/mL (≈ 4.18 µM); MIC against S. aureus B-767 (S. aureus B-767): 8 µg/mL (≈ 4.18 µM); MIC against MRSA 6381 (MRSA 6381): 16 µg/mL (≈ 8.37 µM); MIC against S. aureus 6061 (S. aureus 6061): 16 µg/mL (≈ 8.37 µM); MIC against MRSA 6313 (MRSA 6313): 16 µg/mL (≈ 8.37 µM); MIC against K. pneumonia 6069 (K. pneumonia 6069): 16 µg/mL (≈ 8.37 µM); MIC against K. pneumonia ATCC 10031 (K. pneumonia ATCC 10031): 4 µg/mL (≈ 2.09 µM) |
| OC(Cn1cncn1)(Cn1cncn1)c1ccc(F)cc1F [fluconazole, reference compound] |  |  |  |  |  |  |  |  |  |  |  |  |  |  |  |  |  |  |  |  | reduction in tissue candidiasis infection (in words) [10]: non-significant reduction |
| FKLRAKIKVRLRAKIKL [D4E1, reference compound] | 8 µg/mL | 4 µg/mL | 2 µg/mL | 64 µg/mL | 128 µg/mL | 128 µg/mL | 64 µg/mL | 64 µg/mL | 128 µg/mL | 128 µg/mL | 64 µg/mL | 64 µg/mL | 2 µg/mL | 4 µg/mL | 64 µg/mL | 64 µg/mL | 32 µg/mL | 16 µg/mL | 16 µg/mL | >128 µg/mL | MIC against A. baumannii ATCC 17978 (A. baumannii ATCC 17978): 16 µg/mL; MIC against A. baumannii 6838 (A. baumannii 6838): 8 µg/mL; MIC against MRSA ATCC 33592 (MRSA ATCC 33592): 8 µg/mL; MIC against S. aureus B-767 (S. aureus B-767): 4 µg/mL; MIC against MRSA 6381 (MRSA 6381): 8 µg/mL; MIC against S. aureus 6061 (S. aureus 6061): 8 µg/mL; MIC against MRSA 6313 (MRSA 6313): 8 µg/mL; MIC against K. pneumonia 6069 (K. pneumonia 6069): 16 µg/mL; MIC against K. pneumonia ATCC 10031 (K. pneumonia ATCC 10031): 32 µg/mL |
